Source: patent EP0431076B1, “PENTACYCLIC TRITERPENOID COMPOUNDS AS TOPOISOMERASE INHIBITORS OR CELL DIFFERENTIATION INDUCERS” (RESEARCH TRIANGLE INSTITUTE, priority 1988, dated 1990)

Molecular target: T1, DNA topoisomerase I (Homo sapiens, UniProt P11387)
T1 construct: DNA topoisomerase I was purified to homogeneity from chronic human leukemic cells; from tissue; host or cells: chronic human leukemic cells (endogenous enzyme, purified)
T1 sequence (P11387 1-765): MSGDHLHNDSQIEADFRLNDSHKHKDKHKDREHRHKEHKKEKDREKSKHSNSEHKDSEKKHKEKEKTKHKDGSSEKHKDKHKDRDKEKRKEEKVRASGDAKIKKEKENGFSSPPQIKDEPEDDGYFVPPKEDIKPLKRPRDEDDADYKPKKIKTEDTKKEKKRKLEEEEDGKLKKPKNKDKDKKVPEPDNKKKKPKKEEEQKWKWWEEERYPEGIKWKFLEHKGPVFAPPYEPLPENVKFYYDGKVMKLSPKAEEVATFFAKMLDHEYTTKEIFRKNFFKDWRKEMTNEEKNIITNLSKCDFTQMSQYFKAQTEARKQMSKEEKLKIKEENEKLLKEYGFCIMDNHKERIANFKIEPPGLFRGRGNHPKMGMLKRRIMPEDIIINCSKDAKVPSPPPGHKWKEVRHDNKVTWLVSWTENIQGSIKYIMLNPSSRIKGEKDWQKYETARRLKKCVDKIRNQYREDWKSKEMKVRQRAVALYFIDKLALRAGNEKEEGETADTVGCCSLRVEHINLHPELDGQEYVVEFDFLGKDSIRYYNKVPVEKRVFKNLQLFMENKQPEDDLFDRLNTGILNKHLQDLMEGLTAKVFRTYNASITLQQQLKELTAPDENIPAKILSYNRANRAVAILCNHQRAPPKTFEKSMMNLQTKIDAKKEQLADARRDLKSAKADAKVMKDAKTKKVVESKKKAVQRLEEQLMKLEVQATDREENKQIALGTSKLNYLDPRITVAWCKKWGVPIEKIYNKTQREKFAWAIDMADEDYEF
Test: Topoisomerase I inhibition, supercoiled pBR 322 DNA relaxation assay
Format: biochemical
Settings: gel analysis, Figure 5
From the text: Topoisomerase I inhibitory activity was monitored by using the supercoiled pBR 322 DNA relaxation assay according to a published procedure [Liu et al., Proc. Natl. Acad. Sci., U.S.A., 76, 3487 ([…])].
DNA topoisomerase I was purified to homogeneity from chronic human leukemic cells. Plasmid pBR 322 DNA was purified by phenol deproteinization of cleared lysates followed by CsCl/ethidium isopycnic centrifugation and gel filtration.

Structure (SMILES)	potency in topoisomerase I inhibition relative to standard camptothecin (fold potency versus camptothecin) [X]	potency in topoisomerase I inhibition compared with standard camptothecin (in words)
CC(=O)O[C@@H]1CC[C@@]2(C)[C@@H](CC[C@]3(C)[C@@H]2CC=C2[C@@H]4CC(C)(C)CC[C@]4(C)CC[C@]23C)[C@@]1(C)C(=O)O [A-1, α-boswellic acid acetate]	~3	–
CC(=O)O[C@@H]1CC[C@@]2(C)[C@@H](CC[C@]3(C)[C@@H]2CC=C2[C@@H]4[C@@H](C)[C@H](C)CC[C@]4(C)CC[C@]23C)[C@@]1(C)C(=O)O [B-1, β-boswellic acid acetate]	–	comparable potency
